Reference: EP1619246A1, “RNA dependent RNA polymerases from coronavirus and their use in molecular biology and drug screening” (Université de la Méditerranée, Aix-Marseille II, priority 2004, dated 2006)

Molecular target: SARS CoV nsp8 RNA dependent RNA polymerase, N-terminally His-tagged (SARS-CoV replicase residues 3920-4117), SEQ ID NO. 1 (Severe acute respiratory syndrome coronavirus, UniProt P0C6X7)
Test: biochemical
Type: biochemical

## Nc1nc2c(ncn2[C@@H]2O[C@H](COP(=O)(O)OP(=O)(O)OP(=O)(O)O)C[C@H]2O)c(=O)[nH]1 [3'-deoxy GTP, 3'-deoxy-GTP]
  IC50: ~80 nM
  Nsp8 activity inhibition in presence of 50 µM 3'-deoxy GTP: can be inhibited

## CO[C@H]1/C=C/O[C@@]2(C)Oc3c(C)c(O)c4c(O)c(c(/C=N/N5CCN(C)CC5)c(O)c4c3C2=O)NC(=O)/C(C)=C\C=C\[C@H](C)[C@H](O)[C@@H](C)[C@@H](O)[C@@H](C)[C@H](OC(C)=O)[C@@H]1C [Rifampicine]
  nsp8 polymerase activity in presence of Rifampicine (inhibitor of the bacterial polymerase): activity detected
